According to PMC8657723, “Novel Pituitary Actions of TAC4 Gene Products in Teleost” (International Journal of Molecular Sciences, 2021):
Entries after “also recorded” stand apart in the source; their conditions may differ. Ends that are not written are not given here.

Tests used:
rats = tested on: rats; parameters: method as in 2 sources, ref 26, 51 = [26]; PMID 19854230; doi:10.1016/j.peptides.2009.10.013; 26. Yang Y. Dong S. Effects of Endokinin A/B and Endokinin C/D on the modulation of pain in mice Peptides 2010 31 94 100 10.1016/j.peptides.2009.10.013 19854230 || [51]; PMID 12524318; doi:10.1016/S0006-3495(03)74885-1; 51. Grace R.C. Chandrashekar I.R. Cowsik S.M. Solution structure of the tachyk-inin peptide eledoisin Biophys. J. 2003 84 655 664 10.1016/S0006-3495(03)74885-1 12524318 PMC1302646 ||| ref 26, 53, 54 = [26]; PMID 19854230; doi:10.1016/j.peptides.2009.10.013; 26. Yang Y. Dong S. Effects of Endokinin A/B and Endokinin C/D on the modulation of pain in mice Peptides 2010 31 94 100 10.1016/j.peptides.2009.10.013 19854230 || [53]; PMID 17655832; doi:10.1016/j.brainres.2007.05.062; 53. Naono R. Nakayama T. Ikeda T. Matsushima O. Nishimori T. Leucine at the carboxyl-terminal of endokinins C and D contributes to elicitation of the antagonistic effect on substance P in rat pain pro || [54]; PMID 17101218; doi:10.1016/j.neulet.2006.09.024; 54. Yoshioka D. Takebuchi F. Nishimori T. Naono R. Ikeda T. Nakayama T. Intrathecal administration of the common carboxyl-terminal decapeptide in end-okinin A and endokinin B evokes scratching behavio; details: cited from earlier work; for pain-related behaviors: central administration, scratching, paw withdrawal, thermal hyperalgesia; for effect on SP- or EKA/B-induced pain-related behaviors: simultaneous treatment
six NKR isoforms = assay: Functional activation of the six grass carp NKR isoforms, NFAT-Luc reporter in HEK293T cells; type: cell-based, grass carp (Ctenopharyngodon idellus); details: 24 h
Experimental: To clarify the receptor selectivity of TAC4 gene products, a transfection experiment was conducted in HEK293T cells, and the fluorescent signal was detected by the firefly luciferase reporter gene detection kit. Firstly, the cDNA sequences of neurokinin receptor 1 isoforms a (NK1Ra), neurokinin receptor 1 isoforms b (NK1Rb), NK2R, neurokinin receptor 3 isoforms a1 (NK3Ra1), neurokinin receptor 3 isoforms a2 (NK3Ra2), and neurokinin receptor 3 isoforms b (NK3Rb) were isolated from grass carp pituitary, and the coding region of the six receptors were then subcloned into the eukaryotic expression vector pcDNA3.1. Secondly, the HEK293T cells were co-transfected with the plasmids of NFAT-Luc (Nuclear factor of activated T cells-luciferase), green fluorescent protein (GFP), and each pcDNA3.1-NKRs by using Lipofectamine 3000 (Thermo Fisher). The transfected HEK293T cells were incubated with various concentration HK-1 (1–10,000 nM), HK-2 (1–10,000 nM), or HK1-V7F (1–10,000 nM) for 24 h, respectively. Finally, the transfected cells were collected to detect the luciferase value according to the instructions of the firefly luciferase reporter gene detection kit.
To clarify the receptor selectivity of HK1 and HK2 for the six NKRs, HEK-293T cell lines were established to stably express NK1Ra, NK1Rb, NK2R, NK3Rb, NK3Ra1, or NK3Ra2 were established, respectively. The cells were then used for transfection study with NFAT-Luc vectors, which was allowed for functional evaluation of the activation status of Ca^2+-dependent pathway.
Figure 2 Receptor selectivity of HK1, HK2, and HK1-V7F. The nuclear factor of activated T-cells (NFAT)-Luc reporter together with NK1Ra, NK1Rb, NK2R, NK3Rb, NK3Ra1, or NK3Ra2, were transiently transfected into HEK-293 cells, respectively. The cells were incubated with increasing levels of grass carp HK1, HK2, or HK1-V7F (0.1–1000 nM), respectively. The luciferase activities were normalized against renilla expression in the same sample to adjust for potential variations in transfection efficiency. Each point is determined quadruplicate and is given as a mean ± SEM. The groups denoted by different letters represent significant differences at p-value < 0.05 (ANOVA followed Dunnett’s test).

[1] = tested on: grass carp pituitary cells; assay: RT-qPCR of pituitary gene mRNA expression after peptide treatment of grass carp pituitary cells; type: cell-based, grass carp (Ctenopharyngodon idellus); details: 0.1–1000 nM, 24 h
Description: To further confirm the pituitary actions of HKs in grass carp, trypsin digestion method was used to prepare for grass carp primary cultured pituitary cells. […] After drug treatment, total RNA was extracted from adherent cells by Trizol, and then subjected to reverse transcription using HifairTM III 1st Strand cDNA Synthesis Kit (Yeasen, Shanghai, China). In the present study, β-actin was used as the internal reference gene, and then, the transcript levels of PRL, SLα, CART2, UTS1, and NMB1 were detected by using a ABI 7500 real-time PCR system (see Supplementary Table S2 for primer sequences and PCR condition). In addition, the plasmid DNA containing the gene coding sequence was serially diluted as a standard for data calibration.
In this study, RT-qPCR was used to detect mRNA expression for TAC4, NKRs, PRL, SLα, CART2, UTS1, SN2, and NMB1. In the ABI7500 software, the dynamic mRNA concentration detection range of the double standard curve is 10^5, and the correlation coefficient is >0.95. […] In the transfection experiment, the detected firefly luciferase activity was routinely normalized with the GFP activity expressed in the same well, expressed as the luciferin activity ratio Luc ratio. The data from four parallel experiments was presented as mean ± SEM in the figure. All the data were analyzed by ANOVA, and then subjected to Dunnett’s test in GraphPad Prism 7.0. The significant differences between groups were indicated by p < 0.05.
Figure 5 TAC4 gene products (HK1 and HK2) induced PRL (A) and SLα (B) mRNA expression in grass carp pituitary cells. Time course of grass carp HK1 (1 μM) and HK2 (1 μM) on PRL (A) and SLα (B) mRNA expression in grass carp pituitary cells. Dose-dependence of 24-h treatment with increasing levels of HK1 and HK2 (0.1–1000 nM) on PRL (A) and SLα (B) mRNA expression in grass carp pituitary cells. After drug treatment, the total RNA of the cells was extracted by the Trizol method, and the expression of various genes was detected by RT-PCR. Data presented were expressed as mean ± SEM, and the differences between groups were significant at p-value < 0.05 by labeling diverse letters.
Figure 6 TAC4 gene products (HK1 and HK2) induced CART2, NMB1, and UTS1 mRNA expression in grass carp pituitary cells. Time course of grass carp HK1 (1 μM) and HK2 (1 μM) on CART2 (A), NMB1 (B), and UTS1 (C) mRNA expression in grass carp pituitary cells. Dose-dependence of 24-h treatment with increasing levels of HK1 or HK2 (0.1–1000 nM) on CART2 (A), NMB1 (B), and UTS1 (C) mRNA expression in grass carp pituitary cells. After drug treatment, the total RNA of the cells was extracted by the Trizol method, and the expression of various genes were detected by RT-PCR. Data presented were expressed as mean ± SEM, and the differences between groups were significant at p-value < 0.05 by labeling diverse letters.
Figure 9 Phe to Val mutation in FXGLM motif in PRL, SLα, and UTS1 regulation by HK2 in grass carp pituitary cells. (A) Effects of HK1-V7F on PRL, SLα, and UTS1 mRNA expression in grass carp pituitary cells. In this experiment, grass carp pituitary cells were incubated for 24 h with increasing levels of HK1-V7F (0.1–1000 nM). (B) Suppressed effects of HK1 on HK2-induced PRL, SLα, and UTS1 mRNA expression in grass carp pituitary cells. Pituitary cells were challenged for 24 h with grass carp HK2 (0.1 µM) in the presence or absence of HK1 (1 µM) and HK1 (10 µM). In these experiment, Trizol method was used to extract total cell RNA, and RT-PCR was used to detect PRL, SLα, and UTS1 mRNA expression. Data presented are expressed as mean ± SEM, and the differences between groups were significant at p-value < 0.05 by labeling diverse letters.

carp pituitary cells = details: cited from earlier work; for LHβ secretion / PRL and SLα transcriptional levels / PRL secretion / SLα secretion: pituitary cells of carp
Description: In mammals, the tachykinin (TAC) family includes three members, namely tachykinin 1 (TAC1), tachykinin 3 (TAC3) (tachykinin 2 (TAC2) in rodents), and TAC4, respectively. Among them, TAC1 gene encodes substance P (SP) and neurokinin A (NKA). SP is known to be involved in the regulation of pain control/injury, neurogenicinflammation and obesity with mammals. Compared with mammals, teleost have undergone an additional genome duplication during evolution, which is called fish-specific genome duplication (FSGD) or the 3R hypothesis. […] The resear ... || In mammals, many studies have focused on the actions of hemokinin on immunological regulation and inflammation. However, little information is available about its endocrinology function. […] Similar resu ... || (+ 1 further places)

carp NK2R = tested on: carp NK2R; parameters: method as in PMID 28323939; details: cited from earlier work
Description: In mammals, the biological action of tachykinins is mediated by three GPCRs, namely NK1R, NK2R, and NK3R, which are stimulated preferentially by SP, NKA, and NKB, respectively. […] In the present study, due to the third round whole-genome duplication, 6 NKRs were detected in grass carp, namely NK1Ra, NK1Rb, NK2R, NK3Ra1, NK3Ra2, and NK3Rb, respectively. Based on the ...

[2] = tested on: sexually mature female zebrafish; details: intraperitoneal injection; cited from earlier work
Description: In mammals, TAC3 encodes neurokinin B (NKB), is known to be involved in the regulation of smooth muscles of the gastrointestinal tract, secretion of intestinal epithelial fluid, vasodilation, and stimulating sperm motility. […] The resear ...

[3] = parameters: method as in PMID 20233609, PMID 23317790; details: cited from earlier work

EKA/B: endokinins A and B, human TAC4 products (GKASQFFGLM; ends and bridges not checked; UniProt Q86UU9 58-67, looked up)
pain-related behaviors (rats): induce pain-related behaviors

TPGLQQFFGLM-NH2 [HK1-V7F, Val to Phe mutant of HK1, …-NH2]
ED50, NFAT-Luc luciferase activity, NKR isoforms (in words) (six NKR isoforms; HEK-293T expressing each NKR): nanomolar dose range | activation of the six NKR isoforms (in words) (six NKR isoforms; NFAT-Luc luciferase, HEK293T, NK1Ra, NK1Rb, NK2R, NK3Ra1, NK3Ra2, NK3Rb): notably enhanced | PRL mRNA expression, HK1-V7F dose-response [1]: levels comparable to that induced by HK2 | SLα mRNA expression, HK1-V7F dose-response [1]: levels comparable to that induced by HK2; also recorded: markedly enhanced to the levels for HK2 | UTS1 mRNA expression, HK1-V7F dose-response [1]: levels comparable to that induced by HK2

endokinin C (KKAYQLEHTFQGLL; ends and bridges not checked; UniProt Q86UU9 82-95, looked up) [EKC, human TAC4 product with FXGLL motif]
effect on SP- or EKA/B-induced pain-related behaviors (rats): can be blocked

endokinin D [EKD]
effect on SP- or EKA/B-induced pain-related behaviors (rats): can be blocked

neurokinin A (HKTDSFVGLM; ends and bridges not checked; UniProt P20366 98-107, looked up) [NKA, TAC1 gene product]
LHβ secretion (carp pituitary cells): can trigger the secretion | PRL and SLα transcriptional levels (carp pituitary cells): increase in parallel | PRL secretion (carp pituitary cells): can trigger the secretion | SLα secretion (carp pituitary cells): can trigger the secretion | activation of carp NK2R (carp NK2R): comparable efficacy and potency

neurokinin B (DMHDFFVGLM; ends and bridges not checked; UniProt Q9UHF0 81-90, looked up) [NKB, TAC3 gene product]
pituitary PRL and SLα synthesis and secretion (carp pituitary cells): significantly induce pituitary PRL and SLα synthesis and secretion | PRL and SLα secretion and mRNA synthesis (carp pituitary cells; grass carp pituitary cells): promote PRL and SLα secretion and mRNA synthesis | UTS1, CART2 and NMB1 mRNA expression (carp pituitary cells; grass carp pituitary cells): could stimulate | LHβ secretion in zebrafish [2]: induce LHβ secretion

neurokinin B-related peptide [NKBRP]
PRL and SLα secretion and mRNA synthesis (carp pituitary cells; grass carp pituitary cells): promote PRL and SLα secretion and mRNA synthesis | LHβ secretion in zebrafish [2]: induce LHβ secretion

neuromedin B [NMB]
feeding and gastric peristalsis [3]: inhibit feeding and gastric peristalsis

substance P (RPKPQQFFGLM; ends and bridges not checked; UniProt P20366 58-68, looked up) [SP, TAC1 gene product]
LHβ release, short-term treatment (carp pituitary cells; 3 h): induced the release of LHβ | LHβ mRNA expression, prolonged treatment (carp pituitary cells; 24 h): inhibited LHβ mRNA expression | LHβ secretion (carp pituitary cells): can trigger the secretion | PRL and SLα transcriptional levels (carp pituitary cells): increase in parallel | PRL secretion (carp pituitary cells): can trigger the secretion | SLα secretion (carp pituitary cells): can trigger the secretion | activation of carp NK2R (carp NK2R): comparable efficacy and potency | pain-related behaviors (rats): induce pain-related behaviors
